Reference: US9868748B2, “Thiazolopyrrolidine inhibitors of ROR- γ” (Vitae Pharmaceuticals, Inc., priority 2013, dated 2018)
Like-named read-outs stand apart in the source and are kept apart here.

How the values were obtained:
[1] = target: full-length RORγt in Jurkat cells (Homo sapiens (Human), UniProt P51449); assay: RORγt 5xRORE Assay in Jurkat Cells (Assay 2); format: cell-based; conditions: Nanoluc luciferase reporter, 16-18 hrs
Summary of the method: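 Inverse agonist activity was read as NanoGlo luminescence from conditioned medium after 16–18 h compound exposure (37 °C, 0.1% DMSO final). The cells were Jurkat, transiently transfected with RORγt and a secNluc reporter carrying five RORE repeats, seeded 80,000 per well in delipidated-serum RPMI.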

[2] = target: recombinant RORγ Ligand Binding Domain (LBD) protein (Homo sapiens (Human), UniProt P51449); assay: Radio-Ligand RORγ Binding Assay (Assay 1); conditions: competition with 25-hydroxy [26,27-3H]-cholesterol, SPA, read-out: RORγ Binding Ki Range*
Summary of the method: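 Recombinant human RORγ ligand binding domain (6×His-GST fusion, 24 nM stock) competed with tritiated 25-hydroxycholesterol (8.6 nM stock) in HEPES buffer pH 7.4 with detergents and DTT; poly-Lys YSi SPA beads, room temperature, tritium SPA signal. Four-parameter IC50 from semi-log dilutions, normalised to DMSO and 10 μM T0901317, then Ki via KD equation.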

[3] = Table 9, read-out: RORγt5X IC50 Range*
[4] = Table 8, read-out: RORγt5X IC50 Range*

full-length RORγt in Jurkat cells, sequence (P51449 other isoform, or with tags, fused parts or gaps): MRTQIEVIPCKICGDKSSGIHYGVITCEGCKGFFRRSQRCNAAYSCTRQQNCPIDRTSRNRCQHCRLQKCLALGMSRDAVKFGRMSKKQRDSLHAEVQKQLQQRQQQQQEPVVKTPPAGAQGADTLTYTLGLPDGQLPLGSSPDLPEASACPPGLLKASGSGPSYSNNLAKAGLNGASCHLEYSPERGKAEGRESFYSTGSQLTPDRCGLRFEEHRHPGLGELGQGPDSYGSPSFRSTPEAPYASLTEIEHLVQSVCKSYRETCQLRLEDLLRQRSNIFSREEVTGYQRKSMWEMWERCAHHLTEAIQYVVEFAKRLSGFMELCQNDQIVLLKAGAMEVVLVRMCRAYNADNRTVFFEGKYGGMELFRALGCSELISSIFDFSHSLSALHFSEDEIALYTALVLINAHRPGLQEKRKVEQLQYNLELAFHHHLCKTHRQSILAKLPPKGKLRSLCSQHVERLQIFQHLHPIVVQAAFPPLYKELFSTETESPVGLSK
recombinant RORγ Ligand Binding Domain (LBD) protein, sequence (P51449 269-508): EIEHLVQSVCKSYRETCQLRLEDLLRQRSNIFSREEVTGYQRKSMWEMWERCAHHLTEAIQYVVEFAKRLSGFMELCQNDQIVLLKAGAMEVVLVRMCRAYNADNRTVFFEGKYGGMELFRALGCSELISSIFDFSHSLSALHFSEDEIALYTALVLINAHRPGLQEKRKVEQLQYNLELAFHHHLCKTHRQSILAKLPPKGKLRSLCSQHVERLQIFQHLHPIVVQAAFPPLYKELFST

Row | Compound | IC50 [1, 3] | Ki ([2]; Table 9) | IC50 [1, 4] | Ki ([2]; Table 8)
1 | CCS(=O)(=O)c1ccc(CC(=O)Nc2nc3c(s2)CN(C[C@H]2CC[C@@](C)(C#N)CC2)[C@H]3C(C)C)cc1 (single isomer, unassigned) | < 0.1 µM | < 0.1 µM | – | –
2 | CCS(=O)(=O)c1ccc(CC(=O)Nc2nc3c(s2)CN(C[C@H]2CC[C@](C)(C#N)CC2)[C@H]3C(C)C)cc1 (single isomer, unassigned) | > 1 µM | < 0.1 µM | – | –
3 | CCS(=O)(=O)c1ccc(CC(=O)Nc2nc3c(s2)CN(C[C@H]2CC[C@](C)(C#N)CC2)[C@H]3C(C)C)nc1 (single isomer, unassigned) | > 1 µM | < 0.1 µM | – | –
4 | CCS(=O)(=O)c1ccc(CC(=O)Nc2nc3c(s2)CN(C[C@H]2CC[C@@](C)(C#N)CC2)[C@H]3C(C)C)nc1 (single isomer, unassigned) | 0.1 to 1 µM | < 0.1 µM | – | –
5 | CCS(=O)(=O)c1ccc(CC(=O)Nc2nc3c(s2)CN(C[C@@H]2CC[C@H](C(F)(F)F)N(C4CC4)C2)[C@H]3C(C)C)cc1 (single isomer, unassigned) | > 1 µM | < 0.1 µM | – | –
6 | CCS(=O)(=O)c1ccc(CC(=O)Nc2nc3c(s2)CN(C[C@H]2CC[C@@H](C(F)(F)F)N(C4CC4)C2)[C@H]3C(C)C)cc1 (single isomer, unassigned) | > 1 µM | < 0.1 µM | – | –
7 | CCS(=O)(=O)c1ccc(CC(=O)Nc2nc3c(s2)CN(C[C@H]2CC[C@H](C(F)(F)F)N(C4CC4)C2)[C@H]3C(C)C)cc1 (single isomer, unassigned) | > 1 µM | < 0.1 µM | – | –
8 | CCS(=O)(=O)c1ccc(CC(=O)Nc2nc3c(s2)CN(C[C@@H]2CC[C@@H](C(F)(F)F)N(C4CC4)C2)[C@H]3C(C)C)cc1 (single isomer, unassigned) | > 1 µM | < 0.1 µM | – | –
9 | CCS(=O)(=O)c1ccc(CC(=O)Nc2nc3c(s2)CN(C[C@H]2CC[C@](C)(OC)CC2)[C@H]3C(C)C)nc1 (single isomer, unassigned) | < 0.1 µM | < 0.1 µM | – | –
10 | CCS(=O)(=O)c1ccc(CC(=O)Nc2nc3c(s2)CN(C[C@H]2CC[C@@H](C(F)(F)F)O2)[C@H]3C(C)C)nc1 (single isomer, unassigned) | > 1 µM | < 0.1 µM | – | –
11 | CCS(=O)(=O)c1ccc(CC(=O)Nc2nc3c(s2)CN(C[C@H]2CC[C@@H](C(F)(F)F)OC2)[C@H]3C(C)C)nc1 (single isomer, unassigned) | 0.1 to 1 µM | < 0.1 µM | – | –
12 | CCS(=O)(=O)c1ccc(CC(=O)Nc2nc3c(s2)CN(C[C@@H]2CC[C@H](C(F)(F)F)O2)[C@H]3C(C)C)nc1 (single isomer, unassigned) | > 1 µM | < 0.1 µM | – | –
13 | CCS(=O)(=O)c1ccc(CC(=O)Nc2nc3c(s2)CN(C[C@@H]2CC[C@H](C(F)(F)F)NC2)[C@H]3C(C)C)nc1 (single isomer, unassigned) | > 1 µM | < 0.1 µM | – | –
14 | CCS(=O)(=O)c1ccc(CC(=O)Nc2nc3c(s2)CN(C[C@@H]2CC[C@H](C(F)(F)F)OC2)[C@H]3C(C)C)nc1 (single isomer, unassigned) | > 1 µM | < 0.1 µM | – | –
15 | CCS(=O)(=O)c1ccc(CC(=O)Nc2nc3c(s2)CN(C[C@H]2CC[C@](OC)(C(F)(F)F)CC2)[C@H]3C(C)C)nc1 (single isomer, unassigned) | < 0.1 µM | < 0.1 µM | – | –
16 | CCS(=O)(=O)c1ccc(CC(=O)Nc2nc3c(s2)CN(C[C@H]2CC[C@@](OC)(C(F)(F)F)CC2)[C@H]3C(C)C)nc1 (single isomer, unassigned) | 0.1 to 1 µM | < 0.1 µM | – | –
17 | CCS(=O)(=O)c1ccc(CC(=O)Nc2nc3c(s2)CN(C[C@H]2CC[C@@H](C(F)(F)F)NC2)[C@H]3C(C)C)cc1 (single isomer, unassigned) | > 1 µM | < 0.1 µM | – | –
18 | CCS(=O)(=O)c1ccc(CC(=O)Nc2nc3c(s2)CN(C[C@H]2CC[C@@H](C(F)(F)F)OC2)[C@H]3C(C)C)cc1 (single isomer, unassigned) | > 1 µM | < 0.1 µM | – | –
19 | CCS(=O)(=O)c1ccc(CC(=O)Nc2nc3c(s2)CN(C[C@@H]2CC[C@H](C(F)(F)F)NC2)[C@H]3C(C)C)cc1 (single isomer, unassigned) | > 1 µM | < 0.1 µM | – | –
20 | CCS(=O)(=O)c1ccc(CC(=O)Nc2nc3c(s2)CN(C[C@H]2CC[C@@](O)(C(F)(F)F)CC2)[C@H]3C(C)C)cc1 (single isomer, unassigned) | < 0.1 µM | < 0.1 µM | – | –
21 | CCS(=O)(=O)c1ccc(CC(=O)Nc2nc3c(s2)CN([C@@H](C)c2c(F)cc(Cl)cc2F)[C@H]3C(C)C)cc1 (single isomer, unassigned) | < 0.1 µM | < 0.1 µM | – | –
22 | CCS(=O)(=O)c1ccc(CC(=O)Nc2nc3c(s2)CN(C[C@H]2CC[C@](O)(C(F)(F)F)CC2)[C@H]3C(C)C)cc1 (single isomer, unassigned) | < 0.1 µM | < 0.1 µM | – | –

Row | Compound | IC50 [1, 3] | Ki ([2]; Table 9) | IC50 [1, 4] | Ki ([2]; Table 8)
23 | CCS(=O)(=O)c1ccc(CC(=O)Nc2nc3c(s2)CN(C[C@@H]2CCCOC2)[C@H]3C(C)C)cc1 (single isomer, unassigned) | > 1 µM | < 0.1 µM | – | –
24 | CCS(=O)(=O)c1ccc(CC(=O)Nc2nc3c(s2)CN(C[C@H]2CCCOC2)[C@H]3C(C)C)cc1 (single isomer, unassigned) | > 1 µM | < 0.1 µM | – | –
25 | CCS(=O)(=O)c1ccc(CC(=O)Nc2nc3c(s2)CN(C[C@H]2CC[C@H](C(F)(F)F)CC2)[C@H]3C(C)C)nc1 (single isomer, unassigned) | < 0.1 µM | < 0.1 µM | – | –
26 | CCS(=O)(=O)c1ccc(CC(=O)Nc2nc3c(s2)CN(C[C@H]2CC[C@@H](C(F)(F)F)N(C)C2)C3C(C)C)cc1 (single isomer, unassigned) | > 1 µM | < 0.1 µM | – | –
27 | CCS(=O)(=O)c1ccc(CC(=O)Nc2nc3c(s2)CN(C[C@H]2CC[C@@H](C(=O)OC)CC2)[C@H]3C(C)C)cc1 (single isomer, unassigned) | > 1 µM | < 0.1 µM | – | –
28 | CC(C)[C@H]1c2nc(NC(=O)Cc3ccc(S(C)(=O)=O)cc3)sc2CN1[C@H](C)c1ccc(C(F)(F)F)nc1 (single isomer, unassigned) | < 0.1 µM | < 0.1 µM | – | –
29 | CC(C)[C@H]1c2nc(NC(=O)Cc3ccc(S(C)(=O)=O)cc3)sc2CN1[C@@H](C)c1ccc(C#N)c(F)c1 (single isomer, unassigned) | < 0.1 µM | < 0.1 µM | – | –
30 | CC(C)[C@H]1c2nc(NC(=O)Cc3ccc(S(C)(=O)=O)cc3)sc2CN1[C@@H](C)c1ccc(C(F)(F)F)nc1 (single isomer, unassigned) | < 0.1 µM | < 0.1 µM | – | –
31 | CC(C)[C@H]1c2nc(NC(=O)Cc3ccc(S(C)(=O)=O)cc3)sc2CN1[C@H](C)c1ccc(Cl)cn1 (single isomer, unassigned) | 0.1 to 1 µM | < 0.1 µM | – | –
32 | CCS(=O)(=O)c1ccc(CC(=O)Nc2nc3c(s2)CN([C@H](C)c2ccc(C#N)cn2)[C@H]3C(C)C)cc1 (single isomer, unassigned) | < 0.1 µM | < 0.1 µM | – | –
33 | CC(C)[C@H]1c2nc(NC(=O)Cc3ccc(S(C)(=O)=O)cc3)sc2CN1[C@@H](C)c1ccc(Cl)cn1 (single isomer, unassigned) | 0.1 to 1 µM | < 0.1 µM | – | –
34 | CCS(=O)(=O)c1ccc(CC(=O)Nc2nc3c(s2)CN([C@@H](C)c2ccc(C#N)cn2)[C@H]3C(C)C)cc1 (single isomer, unassigned) | < 0.1 µM | < 0.1 µM | – | –
35 | CCS(=O)(=O)c1ccc(CC(=O)Nc2nc3c(s2)CN([C@H](C)Cc2ccc(Cl)cc2)[C@H]3C(C)C)cc1 (single isomer, unassigned) | > 1 µM | < 0.1 µM | – | –
36 | CC(C)[C@@H]1c2nc(NC(=O)Cc3ccc(S(C)(=O)=O)cc3)sc2CN1[C@H](C)c1ccc(C(F)(F)F)cc1 (single isomer, unassigned) | 0.1 to 1 µM | 0.1 to 1 µM | – | –
37 | CC(C)[C@@H]1c2nc(NC(=O)Cc3ccc(S(C)(=O)=O)cc3)sc2CN1[C@H](C)c1ccc(OC(F)(F)F)cc1 (single isomer, unassigned) | > 1 µM | 0.1 to 1 µM | – | –
38 | CCS(=O)(=O)c1ccc(CC(=O)Nc2nc3c(s2)CN([C@H](C)c2ccccc2)[C@@H]3C(C)C)cc1 (single isomer, unassigned) | > 1 µM | < 0.1 µM | – | –
39 | CCS(=O)(=O)c1ccc(CC(=O)Nc2nc3c(s2)CN([C@@H](C)c2ccccc2)[C@@H]3C(C)C)cc1 (single isomer, unassigned) | > 1 µM | < 0.1 µM | – | –
40 | CCS(=O)(=O)c1ccc(CC(=O)Nc2nc3c(s2)CN(C[C@H]2CC[C@H](C(F)(F)F)NC2)[C@H]3C(C)C)nc1 (single isomer, unassigned) [drawing 211] | 0.1 to 1 µM | 0.1 to 1 µM | – | –
41 | CCS(=O)(=O)c1ccc(CC(=O)Nc2nc3c(s2)CN(C[C@H]2CC[C@H](C(F)(F)F)NC2)[C@H]3C(C)C)nc1 (single isomer, unassigned) [drawing 212] | > 1 µM | < 0.1 µM | – | –
42 | CCS(=O)(=O)c1ccc(CC(=O)Nc2nc3c(s2)CN(Cc2ccc(OC(F)F)cc2)[C@H]3C(C)C)cc1 [I-A1, (S)—N-(5-(4-(difluoromethoxy)benzyl)-4-isopropyl-5,6-dihydro-4H-pyrrolo[3,4-d]thiazol-2-yl)-2-(4-(ethylsulfonyl)phenyl)acetamide] | – | – | < 0.1 µM | < 0.1 µM
43 | CCS(=O)(=O)c1ccc(CC(=O)Nc2nc3c(s2)CN(Cc2ccc(C(F)(F)F)cc2)[C@H]3C(C)C)cc1 [I-A2, (S)-2-(4-(ethylsulfonyl)phenyl)-N-(4-isopropyl-5-(4-(trifluoromethyl)benzyl)-5,6-dihydro-4H-pyrrolo[3,4-d]thiazol-2-yl)acetamide] | – | – | < 0.1 µM | < 0.1 µM
